Measured values: US20230172874A1, “USE OF CANNABIDIOL FOR THE TREATMENT OF INSOMNIA ASSOCIATED TO PAIN” (priority 2021, published 2023)
Entries after “also recorded” stand apart in the source; their conditions may differ.

What was measured:
rats = conditions: rat, in vivo; cited from earlier work
neuropathic rats [1] = assay: EEG/EMG recording of wakefulness, NREM and REM sleep in neuropathic rats; type: in vivo, male Wistar rats; conditions: for REM sleep (total time), relative to NP rats treated with vehicle / total NREM sleep, relative to NP rats treated with vehicle / total time of wakefulness, relative to NP rats treated with vehicle: WAY 100635 2 mg/kg; for block of the hypnotic effects of CBD (20 mg/kg): WAY 100635 2 mg/kg i.p. 10 min before CBD
Method: Animals. The experiments were performed on male Wistar rats weighing 250 g (six weeks). All animals were housed in standardized animal facilities under a 12 h light/dark cycle (lights on at 7 AM) with ad libitum access to food and water. All surgeries and experimental procedures were performed during the light cycle. Experimental protocols were approved by the Animal Ethics Committee of the local institutional committee for animal use and care (McGill University, Qc, Canada). These protocols follow ethical guidelines for investigation of experimental pain in conscious animals of the IASP, the Canadian Institute of Health Research guidelines for animal care and scientific use.
Spared nerve injury (SNI). SNI was performed according to the method of Decosterd and Woolf^35. Rats were deeply anaesthetized with isofluorane (5%), anaesthesia was confirmed by the absence of a nociceptive reflex reaction to a paw pinch. The sciatic nerve was exposed at mid-thigh level distal to the trifurcation and freed of connective tissue; the three peripheral branches (sural, common peroneal, and tibial nerves) of the sciatic nerve were exposed without stretching nerve structures. Both tibial and common peroneal nerves were ligated and transected together. Carprofen (5 mg/kg) was administrated subcutaneously pre-surgery as well as three days every 24 hours post-surgery as analgesic. After SNI, each rat was housed in its home cage for 15 days until the neuropathy is developed.
EEG/EMG Implantation. Neuropathic rats (10 days after surgery) and naïve rats were placed in a stereotaxic frame following isoflurane-induced anesthesia (5%). Anaesthesia was confirmed by the absence of a nociceptive reflex reaction to a paw pinch. For EEG monitoring, three stainless-steel epidural electrodes were positioned through 1.5 mm burr holes: one over the parietal cortex on each side, and the third (as a reference) in the right prefrontal cortex. In rats, their respective locations relative to bregma were −2 mm anteroposterior (AP) and −3 mm lateral (L), −7 mm AP and −3 mm L, and −4.5 mm AP and +3 mm L, according to Paxinos and Watson. For EMG monitoring, three flexible stainless-steel wire electrodes, silicon insulation removed at the terminal 3-4 mm, were implanted into the neck muscles (two bilaterally and one in the middle). Wires were fused with the electrodes and the connectors were fixed to the skull with dental acrylic (Coltene/Whaledent). Carprofen (10mg/kg) was administrated subcutaneously pre-surgery as well as three days every 24 hours post-surgically as analgesic. Each rat was single-caged post-surgery and allowed to recover for the next 5 days^13. 24 hours after surgery, the rats were placed in the recording chamber and connected to a flexible 6-flat wire (3M Scotchflex™) in a freely moving manner for several hours during the subsequent 5 days. No recordings were performed, but tolerance to the cable and sleep behavior were observed. All rats from a home cage were also grouped for one hour each day for socialization to circumvent anxious-depressive-like behavior induced by social isolation^13.
Study design for EEG and EMG assessment. […] […] In another cohort of rats rimonabant (1 mg/kg) was also injected i.p. at 6 A.M. in neuropathic rats.
(§1) EEG and EMG recording. Six days after surgery (16 days post-SNI), mechanical allodynia was assessed via von Frey test, and EEG/EMG was recorded for a period of 6 h (from 6 AM to 12 PM). The treatments (described below) were performed at 6:00 A.M., right after the recording had started. […] Consecutive 10 s epochs were subjected to a fast Fourier transform (FFT), and EEG power spectra density was computed in the frequency range of 0-64 Hz^13.
Analysis of EEG and EMG data. The three classical vigilance states as described in the rat were discriminated on the basis of the cortical EEG and neck EMG activities. […]

neuropathic rats [2] = assay: EEG power spectra (delta, theta, sigma bands) during NREM and REM sleep; type: in vivo, male Wistar rats
Method: as §1
To determine the variations in power spectra induced by the pharmacological treatment of CBD and antagonists, the power densities were summed up over the frequency band of 0-25 Hz (total power). The data were then standardized by expressing all power spectral densities at the different 0.5 Hz bin frequency ranges (delta, theta, and sigma) as a percentage relative to the total power of the same epoch^16. Frequency ranges were 0-3.5Hz for delta, 4-8.5Hz for theta, and 11-14 Hz for sigma bands. The sum of power densities over a frequency band following treatments were expressed as the percentage difference from that in or naïve+veh or NP+vehicle group in statistical analysis. In the experiments with WAY 100635 the NP+CBD was compared with NP+vehicle, NP+WAY, NP+WAY+CBD.
To assess whether CBD (20 mg/kg) might affect the microarchitecture during the sleep, the intensity Delta (0.5-4 Hz), Theta ([…]) and Sigma (10-15 Hz) waves were measured during 6 hours of light phase in the 3 groups of rats (Naïve, SNI+VEH and SNI+CBD 20mg/kg). Data were converted as a percentage of variation vs. naive animals and One-way ANOVA was performed on the power of delta, theta and sigma waves during NREM and REN sleep.
To assess whether the 5-HT1A selective antagonist WAY 100635 (2 mg/kg) might reverse the effect of CBD (20 mg/kg) in the enhancement of power density (Delta, Theta, and Sigma waves) during sleep, the power spectra were measured for 6 hours in four groups of rats. The first group were NP rats treated with CBD vehicle (n=8), the second group were NP rats treated with WAY 100635 alone at 2 mg/kg (n=6), the third group were NP rats treated with WAY 100635 (2 mg/kg)+CBD (20 mg/kg; n=6), and the fourth group were NP treated with CBD at 20 mg/kg (n=8). Data were converted as a percentage of variation vs NP animals treated with vehicle.

[3] = 6 h EEG/EMG, i.p., CBD 20 mg/kg, rimonabant 1 mg/kg
[4] = NP rats, 6 h EEG/EMG, i.p., CBD 20 mg/kg, rimonabant 1 mg/kg
[5] = 6 h EEG/EMG, i.p., CBD 20 mg/kg
[6] = 6 h EEG/EMG, i.p., CBD 20 mg/kg, listed as WAY

In the case of `Cc1c(C(=O)NN2CCCCC2)nn(-c2ccc(Cl)cc2Cl)c1-c1ccc(Cl)cc1` [Rimonabant], the “time spent in NREM sleep” value (rats) is given as “reducing the time spent in NREM sleep and REM sleep”, the “time spent in REM sleep” value (rats) is given as “reducing the time spent in NREM sleep and REM sleep” and the “time spent in wakefulness” value (rats) is given as “dose-dependently increased the time spent in wakefulness”. The “REM sleep (total time), relative to NP rats treated with vehicle” value (neuropathic rats [1]; [3]) was “Decrease the Time Spent in REM; also recorded: difference”, the “REM sleep (total time), relative to NP rats treated with vehicle” value (neuropathic rats [1]; 6 h EEG/EMG, i.p., CBD 20 mg/kg, rimonabant 1 mg/kg, listed as rimonabant) was “reduction of REM sleep time; also recorded: decreases REM sleep” and the “REM sleep, relative to naïve animals treated with vehicle” value (neuropathic rats [1]; [4]) was “difference”. The “wakefulness, relative to naïve animals treated with vehicle” value (neuropathic rats [1]; [4]) was “difference” and the “reversal of sleep perturbations induced by neuropathic pain (sleep-wake cycle)” value (neuropathic rats [1]; NP rats, i.p., CBD 20 mg/kg, rimonabant 1 mg/kg) was “Does not Reverse the Sleep Perturbations”.

With `COc1ccccc1N1CCN(CCN(C(=O)C2CCCCC2)c2ccccn2)CC1` [WAY 100635] the “power of Delta waves during REM sleep, between groups (ANOVA)” value (neuropathic rats [2]; NP rats, 6 h, CBD 20 mg/kg, WAY 100635 2 mg/kg) was “no statistically significant differences between groups”, the “block of the theta power increase induced by CBD (20 mg/kg) on NREM sleep” value (neuropathic rats [2]; NP rats, WAY 100635 2 mg/kg, p<0.0003) was “able to block the theta power increase induced by CBD” and the “block of the effects of CBD (20 mg/kg) on Sigma power during REM sleep” value (neuropathic rats [2]; NP rats, WAY 100635 2 mg/kg, p<0.0019) was “blocks the effects of CBD”. The “block of the Delta power increase induced by CBD (20 mg/kg) on NREM sleep” value (neuropathic rats [2]; NP rats, WAY 100635 2 mg/kg, p<0.0048) was “able to block the Delta power increase induced by CBD”, the “block of the positive effect of CBD (20 mg/kg) on theta waves during REM sleep” value (neuropathic rats [2]; NP rats, WAY 100635 2 mg/kg, p<0.0061) was “able to block the positive effect of CBD” and the “intensity of Sigma waves during NREM sleep, relative to NP animals administered CBD 20 mg/kg” value (neuropathic rats [2]; WAY 100635 2 mg/kg alone (p<0.038) or WAY 100635+CBD (p<0.0006)) was “differences were detected”. The “REM sleep, compared to NP rats treated with CBD 20 mg/kg” value (neuropathic rats [1]; 6 h EEG/EMG, WAY 100635 alone i.p.) was “decrease in REM sleep”, the “total NREM sleep, relative to NP rats treated with vehicle” value (neuropathic rats [1]; [5]) was “statistically reduced the time spent NREM sleep” and the “total time of wakefulness, relative to NP rats treated with vehicle” value (neuropathic rats [1]; [5]) was “increase in wakefulness”. The “total NREM sleep, relative to NP rats treated with vehicle” value (neuropathic rats [1]; [6]) was “impaired NREM sleep”, the “total time of wakefulness, relative to NP rats treated with vehicle” value (neuropathic rats [1]; [6]) was “increased wakefulness” and the “REM sleep (total time), relative to NP rats treated with vehicle” value (neuropathic rats [1]; [3]) was “no statistical difference was detected”. For the same compound, the “total time of wakefulness, relative to NP rats treated with CBD 20 mg/kg” value (neuropathic rats [1]; 6 h EEG/EMG, i.p., WAY 100635 2 mg/kg alone or 10 min before CBD 20 mg/kg) was “increase in wakefulness”, the “block of the positive effect of CBD (20 mg/kg) on REM sleep” value (neuropathic rats [1]; NP rats, 6 h EEG/EMG, WAY 100635 (1 mg/kg) as printed, before CBD, p<0.001) was “able to block the positive effect of CBD” and the “block of the hypnotic effects of CBD (20 mg/kg)” value (neuropathic rats [1]; NP rats) was “fully prevented”. The “block of the hypnotic effects of CBD (20 mg/kg)” value (neuropathic rats [1]; NP rats, listed as WAY100635) was “Blocks the Hypnotic Effects of CBD”.
